# Reference: PubChem BioAssay AID256 (DTP/NCI, 2004)
# Inconclusive results and toxic doses are left out.
# Tested on: CD2F1 mice, L1210 leukemia ip, survival T/C
# Test: NCI In Vivo Anticancer Drug Screen. Data for tumor model L1210 Leukemia (intraperitoneal) in CD2F1 (CDF1) mice
# Settings: endpoint: mean survival time, higher = longer survival
# Outline: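 Activity against a transplanted murine tumor was judged by comparing the compound group with a vehicle group. The outcome in the treated animals was divided by that in the controls.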
# [1] = dose: 100.0 mg/kg/injection, schedule: Q01DX001 (ip), vehicle: saline
# [2] = dose: 200.0 mg/kg/injection, schedule: Q01DX001 (ip), vehicle: saline
# [3] = dose: 400.0 mg/kg/injection, schedule: Q01DX001 (ip), vehicle: saline
# [4] = dose: 100.0 mg/kg/injection, schedule: Q01DX009 (ip), vehicle: saline with Tween-80
# [5] = dose: 200.0 mg/kg/injection, schedule: Q01DX009 (ip), vehicle: saline with Tween-80
# [6] = dose: 400.0 mg/kg/injection, schedule: Q01DX009 (ip), vehicle: saline with Tween-80
# [7] = dose: 100.0 mg/kg/injection, schedule: Q04DX003 (ip), vehicle: Klucel (hydroxypropylcellulose) (HPC)
# [8] = dose: 200.0 mg/kg/injection, schedule: Q04DX003 (ip), vehicle: Klucel (hydroxypropylcellulose) (HPC)
# [9] = dose: 400.0 mg/kg/injection, schedule: Q04DX003 (ip), vehicle: Klucel (hydroxypropylcellulose) (HPC)
# [10] = dose: 100.0 mg/kg/injection, schedule: Q04DX002 (ip), vehicle: saline with Tween-80
# [11] = dose: 100.0 mg/kg/injection, schedule: Q04DX003 (ip), vehicle: saline with Tween-80
# [12] = dose: 200.0 mg/kg/injection, schedule: Q04DX003 (ip), vehicle: saline with Tween-80
# [13] = dose: 400.0 mg/kg/injection, schedule: Q04DX003 (ip), vehicle: saline with Tween-80
# [14] = dose: 100.0 mg/kg/injection, schedule: Q01DX001 (ip), vehicle: saline with Tween-80
# [15] = dose: 200.0 mg/kg/injection, schedule: Q01DX001 (ip), vehicle: saline with Tween-80
# [16] = dose: 50.0 mg/kg/injection, schedule: Q01DX009 (ip), vehicle: saline with Tween-80
smiles,measurement,setting,value
C=C(N=[N+]=[N-])c1ccccc1,T/C,"dose: 12.5 mg/kg/injection, schedule: Q01DX009 (ip), vehicle: other",110 % of control
same,T/C,"dose: 25.0 mg/kg/injection, schedule: Q01DX009 (ip), vehicle: other",100 % of control
same,T/C,"dose: 50.0 mg/kg/injection, schedule: Q01DX009 (ip), vehicle: other",100 % of control
same,T/C,"dose: 100.0 mg/kg/injection, schedule: Q01DX009 (ip), vehicle: other",102 % of control
C=CCN(CC=C)P(=O)(N(CC=C)CC=C)N1CC1,T/C,"dose: 11.0 mg/kg/injection, schedule: Q01DX015 (ip), vehicle: saline",151 % of control
same,T/C,"dose: 17.0 mg/kg/injection, schedule: Q01DX015 (ip), vehicle: saline",114 % of control
C1=C(c2ccc(-c3ccccc3)cc2)Nc2ccccc2S1,T/C,"dose: 100.0 mg/kg/injection, schedule: Q04DX002 (ip), vehicle: other",107 % of control
same,T/C,"dose: 200.0 mg/kg/injection, schedule: Q04DX002 (ip), vehicle: other",107 % of control
Cc1cc(C)c(O)c(C)c1C,T/C,"dose: 31.25 mg/kg/injection, schedule: Q01DX009 (ip), vehicle: saline",100 % of control
same,T/C,"dose: 62.5 mg/kg/injection, schedule: Q01DX009 (ip), vehicle: saline",91 % of control
same,T/C,"dose: 125.0 mg/kg/injection, schedule: Q01DX009 (ip), vehicle: saline",95 % of control
same,T/C,"dose: 250.0 mg/kg/injection, schedule: Q01DX009 (ip), vehicle: saline",93 % of control
CCOC(=O)C(Cc1ccccc1)P(=O)(OCC)OCC (stereo not given),T/C,[1],108 % of control
same,T/C,[2],108 % of control
same,T/C,[3],100 % of control
O=C1OC2C3CC4C2OC(=O)C4C13 (stereo not given),T/C,[4],102 % of control
same,T/C,[5],98 % of control
same,T/C,[6],90 % of control
CC(=O)NN1C(=O)c2ccccc2C1=O,T/C,[7],98 % of control
same,T/C,[8],98 % of control
same,T/C,[9],98 % of control
O.[Co].[NH2-].[NH2-].[NH2-].[NH2-].[NH2-],T/C,"dose: 25.0 mg/kg/injection, schedule: Q04DX002 (ip), vehicle: saline with Tween-80",93 % of control
same,T/C,[10],90 % of control
same,T/C,"dose: 100.0 mg/kg/injection, schedule: Q04DX002 (ip), vehicle: saline",98 % of control
C/C(=N/NC(=O)c1ccccc1)c1cccc(O)c1,T/C,[4],89 % of control
same,T/C,[11],94 % of control
same,T/C,[12],90 % of control
same,T/C,[6],103 % of control
same,T/C,[13],97 % of control
NC(=O)N/N=C/c1ccccc1N,T/C,[11],97 % of control
same,T/C,[12],108 % of control
same,T/C,[13],98 % of control
O=C1NC(=O)C(CCCCO)N1 (stereo not given),T/C,[14],101 % of control
same,T/C,[15],106 % of control
same,T/C,"dose: 300.0 mg/kg/injection, schedule: Q01DX001 (ip), vehicle: saline with Tween-80",98 % of control
C=CCC1OC1CCCC1CO1 (stereo not given),T/C,"dose: 100.0 mg/kg/injection, schedule: Q01DX001 (ip), vehicle: saline sonified",94 % of control
same,T/C,[10],97 % of control
same,T/C,"dose: 200.0 mg/kg/injection, schedule: Q01DX001 (ip), vehicle: saline sonified",90 % of control
same,T/C,"dose: 200.0 mg/kg/injection, schedule: Q04DX002 (ip), vehicle: saline with Tween-80",101 % of control
same,T/C,"dose: 400.0 mg/kg/injection, schedule: Q01DX001 (ip), vehicle: saline sonified",97 % of control
same,T/C,"dose: 400.0 mg/kg/injection, schedule: Q04DX002 (ip), vehicle: saline with Tween-80",97 % of control
CC(=O)c1ccc(Cc2ccc(C(C)=O)cc2)cc1,T/C,[7],103 % of control
same,T/C,[8],98 % of control
same,T/C,[9],97 % of control
C#CC1(OC(=O)c2ccccc2)CCCCC1,T/C,[11],98 % of control
same,T/C,[12],96 % of control
same,T/C,[13],102 % of control
CCOC(=O)C(C)C(O)c1ccc(OC)cc1 (stereo not given),T/C,"dose: 12.5 mg/kg/injection, schedule: Q01DX009 (ip), vehicle: saline with Tween-80",101 % of control
same,T/C,"dose: 25.0 mg/kg/injection, schedule: Q01DX009 (ip), vehicle: saline with Tween-80",101 % of control
same,T/C,[16],93 % of control
CN(C)C(=S)Oc1c([N+](=O)[O-])cc([N+](=O)[O-])cc1C(C)(C)C,T/C,[10],91 % of control
CC(=O)c1cc(-c2ccc(Cl)cc2)nc2c(Cl)cc(Cl)cc12,T/C,[1],89 % of control
same,T/C,[2],87 % of control
same,T/C,[3],91 % of control
O=P(OCCCOCc1ccccc1)(N(CCCl)CCCl)N1CC1 (stereo not given),T/C,"dose: 25.0 mg/kg/injection, schedule: Q01DX001 (ip), vehicle: other",104 % of control
same,T/C,"dose: 50.0 mg/kg/injection, schedule: Q01DX001 (ip), vehicle: other",106 % of control
same,T/C,"dose: 100.0 mg/kg/injection, schedule: Q01DX001 (ip), vehicle: DMSO",98 % of control
same,T/C,"dose: 100.0 mg/kg/injection, schedule: Q01DX001 (ip), vehicle: other",118 % of control
same,T/C,"dose: 200.0 mg/kg/injection, schedule: Q01DX001 (ip), vehicle: DMSO",103 % of control
same,T/C,"dose: 200.0 mg/kg/injection, schedule: Q01DX001 (ip), vehicle: other",101 % of control
same,T/C,"dose: 400.0 mg/kg/injection, schedule: Q01DX001 (ip), vehicle: DMSO",109 % of control
same,T/C,"dose: 400.0 mg/kg/injection, schedule: Q01DX001 (ip), vehicle: other",87 % of control
CCN(C(=O)NC)c1cc(C)ccc1OC,T/C,[4],87 % of control
same,T/C,[5],87 % of control
same,T/C,[6],98 % of control
CCCC(C(=O)O)C(CCC)C(=O)O (stereo not given),T/C,[11],96 % of control
same,T/C,[12],104 % of control
same,T/C,[13],101 % of control
O=C1CCN2CCc3c([nH]c4ccccc34)C2C1 (stereo not given),T/C,[11],101 % of control
same,T/C,[12],101 % of control
same,T/C,[13],109 % of control
CC/C(=C\C=C\N(C)C)C(=O)OC,T/C,[16],100 % of control
same,T/C,[4],100 % of control
same,T/C,[5],105 % of control
CC(O)C(O)C=O (stereo not given),T/C,"dose: 72.0 mg/kg/injection, schedule: Q03HX008 (ip), vehicle: saline",100 % of control
same,T/C,"dose: 120.0 mg/kg/injection, schedule: Q03HX008 (ip), vehicle: saline",97 % of control
same,T/C,"dose: 200.0 mg/kg/injection, schedule: Q03HX008 (ip), vehicle: saline",102 % of control
same,T/C,"dose: 248.0 mg/kg/injection, schedule: Q01DX009 (ip), vehicle: saline",101 % of control
same,T/C,"dose: 346.0 mg/kg/injection, schedule: Q01DX009 (ip), vehicle: saline",104 % of control
same,T/C,"dose: 576.0 mg/kg/injection, schedule: Q01DX001 (ip), vehicle: saline",97 % of control
same,T/C,"dose: 576.0 mg/kg/injection, schedule: Q01DX009 (ip), vehicle: saline",107 % of control
same,T/C,"dose: 960.0 mg/kg/injection, schedule: Q01DX001 (ip), vehicle: saline",94 % of control
same,T/C,"dose: 1600.0 mg/kg/injection, schedule: Q01DX001 (ip), vehicle: saline",102 % of control
CC(C)(C)OC(=O)NNC(c1ccccc1)c1ccccc1,T/C,[4],101 % of control
same,T/C,[11],98 % of control
same,T/C,[5],95 % of control
same,T/C,[12],95 % of control
same,T/C,[13],97 % of control
CC1(C)OCC(C(=O)C(OC(=O)c2ccccc2)C2COC(C)(C)O2)O1 (stereo not given),T/C,"dose: 50.0 mg/kg/injection, schedule: Q01DX009 (ip), vehicle: Klucel (hydroxypropylcellulose) (HPC)",94 % of control
same,T/C,"dose: 100.0 mg/kg/injection, schedule: Q01DX009 (ip), vehicle: Klucel (hydroxypropylcellulose) (HPC)",88 % of control
same,T/C,"dose: 200.0 mg/kg/injection, schedule: Q01DX009 (ip), vehicle: Klucel (hydroxypropylcellulose) (HPC)",98 % of control
N#Cc1c(F)c(F)c(C#N)c(F)c1F,T/C,"dose: 5.0 mg/kg/injection, schedule: Q04DX003 (ip), vehicle: Klucel (hydroxypropylcellulose) (HPC)",104 % of control
same,T/C,"dose: 10.0 mg/kg/injection, schedule: Q04DX003 (ip), vehicle: Klucel (hydroxypropylcellulose) (HPC)",106 % of control
same,T/C,"dose: 20.0 mg/kg/injection, schedule: Q04DX003 (ip), vehicle: Klucel (hydroxypropylcellulose) (HPC)",102 % of control
same,T/C,"dose: 40.0 mg/kg/injection, schedule: Q04DX003 (ip), vehicle: Klucel (hydroxypropylcellulose) (HPC)",104 % of control
CCCC(O)CNCc1ccc2c3c(cccc13)CC2 (stereo not given),T/C,"dose: 25.0 mg/kg/injection, schedule: Q01DX001 (ip), vehicle: Klucel (hydroxypropylcellulose) (HPC)",93 % of control
same,T/C,"dose: 50.0 mg/kg/injection, schedule: Q01DX001 (ip), vehicle: Klucel (hydroxypropylcellulose) (HPC)",101 % of control
Cc1ccc(C(=S)NC(=O)Nc2ccccc2)cc1,T/C,[14],97 % of control
same,T/C,[15],94 % of control
same,T/C,"dose: 400.0 mg/kg/injection, schedule: Q01DX001 (ip), vehicle: saline with Tween-80",97 % of control
